Source: patent US8557823B2, “Family of PFKFB3 inhibitors with anti-neoplastic activities” (Advanced Cancer Therapeutics, LLC, priority 2007, dated 2013)
Converted amounts (≈) assume the structure as drawn. Structures can show the parent of a compound that is named as a salt. Where two headings read alike, the source gives them in different places.

Columns and labels:
Jurkat = assay: Cancer cell proliferation, Alamar Blue assay 72 hours, Jurkat; type: cell-based
Experimental: (§1) The ability of the compounds described herein to kill or inhibit the proliferation of cancer cells was measured using either the MTT assay, the Alamar Blue assay, or the Cell Titer Glow® assay using 48 or 72 hours exposure. […] The procedures are briefly described below. Cells of the desired tumor cell line were plated at 2×10^5 cells/ml in 96 well plates. Twice the indicated concentrations of the compounds of the invention were added to cells the following day in an equal volume of media. 72 hours later, cells were lysed and subjected to ATP determination using the CellTiter Glo-Luminescent Cell Viability Assay kit (Promega, Madison, Wis.). Experiments were done in triplicate. When using the MTT assay or the Alamar blue assay, the experimental conditions are essentially similar; at the end of the incubation period, 20 microl of the MTT solution is added per well and the samples are incubated for an additional four hours, rinsed and the absorbance at 570 nm measured. Results for the inhibition of cells proliferation are reported as IC50 as commonly done (the concentration leading to a 50% inhibition of proliferation of the cell population) and are listed in the Tables below. Table 4 lists the IC50 for the compounds of the invention in several cell lines including Jurkat, Calu-6, NCI-H82, U937, or NCI-H1437 cancer cell lines. Table 5 lists the IC50 of PFK-070 in a panel of 10 cell lines.

[1] = biological target: T1, PFKFB3, the recombinant protein (Homo sapiens, UniProt Q16875); assay: Inhibition of recombinant PFKFB3 (Adapta Kinase assay); type: biochemical; conditions: read-out: IC50 EArec
T1 construct: made in house; host or cells: E. coli
Experimental: PFKFB3 was prepared by expression in E. coli and purified by GST column and column chromatography. […] The recombinant protein was pure and active as determined by the results of a kinase activity assay commercially available (Adapta® Kinase assay).

[2] = Microsomal stability in human liver microsomes; type: in vitro ADME; conditions: 0 min
Experimental: Microsomal stability in vitro in different biologic media (liver microsomes, S9 fraction, hepatocytes) and species is ascertained to evaluate the rate at which a compound undergoes metabolism in the experimental in vitro conditions. […] Experimental conditions are briefly described here: the stability in human liver microsomes of several compounds was done over […] at 37° C. using pooled mixed gender human liver microsomes. These liver microsomes were prepared at 1.0 mg/ml of microsomal protein in a 100 mM potassium phosphate pH 7.4 buffer with 1 mM NADPH. The media was incubated at 37° C. with the compound in solution in DMSO. The concentration of the compound was followed by LC/MS-MS as a function of time. […] Testosterone was used as a positive control. The same experiment was performed with mouse, rat or dog liver microsomes instead of human liver microsomes.

U937 = assay: Cancer cell proliferation, Alamar Blue assay 72 hours, U937; type: cell-based; conditions: Homo sapiens, U-937
Experimental: as §1

Calu-6 = assay: Cancer cell proliferation, Alamar Blue assay 72 hours, Calu-6; type: cell-based; conditions: Homo sapiens
Experimental: as §1

NCI-H82 = assay: Cancer cell proliferation, Alamar Blue assay 72 hours, NCI-H82; type: cell-based; conditions: Homo sapiens
Experimental: as §1

[3] = Solubility in dosing solution Cre:EtOH:Saline; type: physicochemical; conditions: Cremophor:EtOH:Saline 5:5:90, aqueous with cosolvent or surfactant or cyclodextrin, kinetic from dmso stock; 5:5:90 Cremophor:EtOH:Saline, after 24 hours at room temperature
Description: (§2) Chemical properties of the compounds of the invention were investigated, mainly the solubility in several solvents and pharmaceutically accepted excipients or dosing solutions and the stability of these solutions. […] The increase in solubility when comparing the effect of chemical substituents is unpredictable and surprising if one compares the solubility values of PFK-070 to PFK-091 and PFK-070 to PFK-141 and 145 in a dosing solution that could be used to treat cancer patients (See Table 8A below). Briefly, selected compounds of the invention are dissolved in a small volume of the solvents/excipients of interest (Cremophor, or Cremophor:etoh or Tween80:etoh) at room temperature and diluted 1:9 in saline and left at room temperature for over 8 or 24 hours. Both the physical (absence of a precipitate) and the chemical stability (less than 5% degradation) of the solutions are measured (observation and HPLC after filtration).

NCI-H1437 = assay: Cancer cell proliferation, Alamar Blue assay 72 hours, NCI-H1437; type: cell-based; conditions: Homo sapiens
Experimental: as §1

[4] = Solubility profile in aqueous media; type: physicochemical; conditions: 23 °C, aqueous buffer
[5] = Solution stability in clear and amber vials; type: physicochemical; conditions: Cre:EtOH:Saline
Description: as §2
Furthermore, the solution stability of the compounds was investigated and it was discovered that, in normal conditions, they lack the appropriate solution stability as they undergo a rapid photoisomerization; this lack of solution stability is such that methods to prevent these compounds from reacting in solutions are necessary if these compounds are to be used as chemotherapeutic agents for the treatment of cancer patients.

T1 sequence (Q16875 whole entry): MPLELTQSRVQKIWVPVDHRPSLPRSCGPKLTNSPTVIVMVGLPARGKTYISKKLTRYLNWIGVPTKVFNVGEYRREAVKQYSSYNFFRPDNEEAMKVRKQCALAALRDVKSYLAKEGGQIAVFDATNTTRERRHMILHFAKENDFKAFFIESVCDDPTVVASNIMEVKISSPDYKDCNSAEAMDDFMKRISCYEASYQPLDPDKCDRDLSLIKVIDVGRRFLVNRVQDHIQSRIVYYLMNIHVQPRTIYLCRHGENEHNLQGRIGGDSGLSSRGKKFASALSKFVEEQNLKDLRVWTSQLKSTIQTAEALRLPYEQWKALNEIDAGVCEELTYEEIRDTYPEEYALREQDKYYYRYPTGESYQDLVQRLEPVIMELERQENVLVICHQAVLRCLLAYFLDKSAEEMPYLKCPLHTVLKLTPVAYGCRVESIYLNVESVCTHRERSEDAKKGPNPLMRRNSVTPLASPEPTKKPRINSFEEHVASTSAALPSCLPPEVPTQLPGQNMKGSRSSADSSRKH

## O=C(/C=C/c1cnc2ccccc2c1)c1ccncc1 [ACT-PFK-055, 1-Pyridin-4-yl-3-quinolin-3-yl-propenone]
Jurkat
  IC50: > 100000 nM

## Cc1ccc2ccc(/C=C/C(=O)c3ccncc3)nc2c1 [ACT-PFK-154, 3-(7-Methyl-quinolin-2-yl)-1-pyridin-4-yl-propenone]
[1]
  IC50: 622 ± 39 nM
[2]
  Mean metabolized (%): 0%

## Cc1ccc(C(=O)/C=C/c2ccc3ccccc3n2)cc1 [ACT-PFK-068, 3-Quinolin-2-yl-1-p-tolyl-propenone]
Jurkat; Homo sapiens, Jurkat, 72 h
  IC50: 5500 nM
U937
  IC50: 1600 nM
Calu-6
  IC50: 4.8 µM

## O=C(/C=C/c1ccc2ccccc2n1)c1ccc(O)cc1 [ACT-PFK-087, 1-(4-Hydroxy-phenyl)-3-quinolin-2-yl-propenone]
Jurkat; Homo sapiens, Jurkat, 72 h
  IC50: 3700 nM
U937
  IC50: 1300 nM
NCI-H82
  IC50: 2300 nM
Calu-6
  IC50: 1.6 µM

## O=C(/C=C/c1ccc2ccccc2n1)c1cccnc1 [ACT-PFK-035, 1-Pyridin-3-yl-3-quinolin-2-yl-propenone]
Jurkat; Homo sapiens, Jurkat, 72 h
  IC50: 2500 nM

## CNc1cccc2ccc(/C=C/C(=O)c3ccncc3)nc12 [ACT-PFK-151, 3-(8-Methylamino-quinolin-2-yl)-1-pyridin-4-yl-propenone]
[1]
  IC50: 289 ± 56 nM
[2]
  Mean metabolized (%): 0%
[3]
  solubility at 24 h: 1900 µg/mL (≈ 6570 µM)

## Cc1ccc(C(=O)/C=C/c2ccc3cccc(O)c3n2)cc1 [ACT-PFK-071, 3-(8-Hydroxy-quinolin-2-yl)-1-p-tolyl-propenone]
Jurkat; Homo sapiens, Jurkat, 72 h
  IC50: 4800 nM
U937
  IC50: 1900 nM
Calu-6
  IC50: 5 µM

## O=C(/C=C/c1ccc2cccc(F)c2n1)c1ccncc1 [ACT-PFK-145, 3-(8-Fluoro-quinolin-2-yl)-1-pyridin-4-yl-propenone]
Jurkat; Homo sapiens, Jurkat, 72 h
  IC50: 900 nM
NCI-H82
  IC50: 1500 nM
NCI-H1437
  IC50: 4.7 µM
[1]
  IC50: 294 ± 38 nM
[2]
  Mean metabolized (%): 0%
[3]
  solubility at 24 h: 100 µg/mL (≈ 359 µM)

## O=C(/C=C/c1ccnc2ccccc12)c1cccnc1 [ACT-PFK-036, 1-Pyridin-3-yl-3-quinolin-4-yl-propenone]
Jurkat; Homo sapiens, Jurkat, 72 h
  IC50: 2500 nM

## Cc1cccc2ccc(/C=C/C(=O)c3ccncc3)nc12 [ACT-PFK-141, 3-(8-Methyl-quinolin-2-yl)-1-pyridin-4-yl-propenone]
Jurkat; Homo sapiens, Jurkat, 72 h
  IC50: 900 nM
NCI-H82
  IC50: 1100 nM
NCI-H1437
  IC50: 5.4 µM
[1]
  IC50: 210 ± 51 nM
[2]
  Mean metabolized (%): 0%
[3]
  solubility at 24 h: 800 µg/mL (≈ 2920 µM)

## O=C(/C=C/c1cnc2ccccc2c1)c1ccncc1 [ACT-PFK-014, 1-Pyridin-4-yl-3-quinolin-3-yl-propenone]
Jurkat
  IC50: 4000 nM

## O=C(/C=C/c1ccc2ccccc2n1)c1ccccc1O [ACT-PFK-086, 1-(2-Hydroxy-phenyl)-3-quinolin-2-yl-propenone]
Jurkat; Homo sapiens, Jurkat, 72 h
  IC50: 80500 nM
U937
  IC50: 19300 nM
NCI-H82
  IC50: 22500 nM
Calu-6
  IC50: > 100 µM

## Nc1ccccc1C(=O)/C=C/c1ccc2ccccc2n1 [ACT-PFK-088, 1-(2-Amino-phenyl)-3-quinolin-2-yl-propenone]
Jurkat; Homo sapiens, Jurkat, 72 h
  IC50: > 100000 nM
U937
  IC50: 17200 nM
NCI-H82
  IC50: 38500 nM
Calu-6
  IC50: > 100 µM

## Cc1ccc(C(=O)/C=C/c2cc(O)c3ccccc3n2)cc1 [ACT-PFK-073, 3-(4-Hydroxy-quinolin-2-yl)-1-p-tolyl-propenone]
Jurkat; Homo sapiens, Jurkat, 72 h
  IC50: 600 nM
U937
  IC50: 200 nM
Calu-6
  IC50: 0.8 µM

## O=C(/C=C/c1cccc2ncccc12)c1ccncc1 [ACT-PFK-038, 1-Pyridin-4-yl-3-quinolin-5-yl-propenone]
Jurkat; Homo sapiens, Jurkat, 72 h
  IC50: 1000 nM

## Cc1cccc2ccc(/C=C/C(=O)c3ccncc3)nc12 [PFK-141, HCl, 3-(8-Methyl-quinolin-2-yl)-1-pyridin-4-yl-propenone]
[4]; pH = 5
  solubility: 1700 µg/mL
[4]; pH = 7
  solubility: 1900 µg/mL

## O=C(/C=C/c1ccc2ccccc2n1)c1ccnc(F)c1 [ACT-PFK-143, 1-(2-Fluoro-pyridin-4-yl)-3-quinolin-2-yl-propenone]
Jurkat; Homo sapiens, Jurkat, 72 h
  IC50: 1700 nM
NCI-H82
  IC50: 2600 nM
NCI-H1437
  IC50: 4.3 µM
[1]
  IC50: 654 ± 95 nM

## O=C(/C=C/c1ccnc2ccccc12)c1ccncc1 [ACT-PFK-013, 1-Pyridin-4-yl-3-quinolin-4-yl-propenone]
Jurkat; Homo sapiens, Jurkat, 72 h
  IC50: 1000 nM

## Cc1ccc2ccc(/C=C/C(=O)c3ccncc3)nc2c1 [PFK-154, HCl, 3-(7-Methyl-quinolin-2-yl)-1-pyridin-4-yl-propenone]
[4]; pH = 5
  solubility: 2400 µg/mL
[4]; pH = 7
  solubility: 3400 µg/mL

## O=C(/C=C/c1cc(O)c2ccccc2n1)c1ccncc1 [ACT-PFK-066, 3-(4-Hydroxy-quinolin-2-yl)-1-pyridin-4-yl-propenone]
Jurkat; Homo sapiens, Jurkat, 72 h
  IC50: 2400 nM
U937
  IC50: 1300 nM
Calu-6
  IC50: 3.8 µM

## O=C(/C=C/c1ccc2cc(O)ccc2n1)c1ccncc1 [ACT-PFK-149, 3-(6-Hydroxy-quinolin-2-yl)-1-pyridin-4-yl-propenone]
[1]
  IC50: 811 ± 266 nM
[3]
  solubility at 24 h: 300 µg/mL (≈ 1090 µM)

## Nc1ccc(C(=O)/C=C/c2ccc3ccccc3n2)cc1 [ACT-PFK-089, 1-(4-Amino-phenyl)-3-quinolin-2-yl-propenone]
Jurkat; Homo sapiens, Jurkat, 72 h
  IC50: 4200 nM
U937
  IC50: 1600 nM
NCI-H82
  IC50: 900 nM
Calu-6
  IC50: 2.1 µM

## O=C(/C=C/c1cccc2ncccc12)c1cccnc1 [ACT-PFK-039, 1-Pyridin-3-yl-3-quinolin-5-yl-propenone]
Jurkat; Homo sapiens, Jurkat, 72 h
  IC50: 1000 nM

## O=C(/C=C/c1ccc2cccc(O)c2n1)c1cccnc1 [ACT-PFK-067, 3-(8-Hydroxy-quinolin-2-yl)-1-pyridin-3-yl-propenone]
Jurkat; Homo sapiens, Jurkat, 72 h
  IC50: 3100 nM
U937
  IC50: 830 nM
Calu-6
  IC50: 2.4 µM

## O=C(/C=C/c1ccc2cccnc2c1)c1cccnc1 [ACT-PFK-037, 1-Pyridin-3-yl-3-quinolin-7-yl-propenone]
Jurkat; Homo sapiens, Jurkat, 72 h
  IC50: 2500 nM

## O=C(/C=C/c1ccc2cccc(O)c2n1)c1ccncc1 [PFK-070, HCl, 3-(8-Hydroxy-quinolin-2-yl)-1-pyridin-4-yl-propenone]
[5]; 0 hrs
  Solubility stability, Amber Vials: 1.0 mg/mL
[5]; 2 hrs
  Solubility stability, Amber Vials: No change
  appearance of solution, Clear Vials: Change in color
[5]; 4 hrs
  Solubility stability, Amber Vials: No change
  appearance of solution, Clear Vials: Change in color
[5]; 8 hrs
  Solubility stability, Amber Vials: No change
  appearance of solution, Clear Vials: Change in color
[5]; Cremophor:EtOH:Saline solution, aqueous with cosolvent or surfactant or cyclodextrin, kinetic from dmso stock, 0 hrs
  solubility at 0 h: 1000 µg/mL
[5]; Cremophor:EtOH:Saline solution, aqueous with cosolvent or surfactant or cyclodextrin, kinetic from dmso stock, 2 hrs
  solubility at 2 h: 900 µg/mL
[5]; Cremophor:EtOH:Saline solution, aqueous with cosolvent or surfactant or cyclodextrin, kinetic from dmso stock, 4 hrs
  solubility at 4 h: 800 µg/mL
[5]; Cremophor:EtOH:Saline solution, aqueous with cosolvent or surfactant or cyclodextrin, kinetic from dmso stock, 8 hrs
  solubility at 8 h: < 700 µg/mL

## O=C(/C=C/c1cccc2cccnc12)c1ccncc1 [ACT-PFK-047, 1-Pyridin-4-yl-3-quinolin-8-yl-propenone]
Jurkat; Homo sapiens, Jurkat, 72 h
  IC50: 14000 nM

## O=C(/C=C/c1cnc2ccccc2c1)c1cccnc1 [ACT-PFK-048, 1-Pyridin-3-yl-3-quinolin-3-yl-propenone]
Jurkat; Homo sapiens, Jurkat, 72 h
  IC50: 17000 nM
